# Laboratory results from patent US8399206B2, “Methods for diagnosis, prognosis and methods of treatment” (Nodality, Inc., priority 2008, dated 2013).
# Where a SMILES comes first, the peptide text is derived from it. The star is where a group is joined. Cbz = O=C(OCc1ccccc1)*; CH2F = FC*
# B1: G-CSF: granulocyte colony-stimulating factor (protein, UniProt P09919 31-207, looked up)
# Granulocyte …: TPLGPASSLPQSFLLKCLEQVRKIQGDGAALQEKLVSECATYKLCHPEELVLLGHSLGIPWAPLSSCPSQALQLAGCLSQLHSGLFLYQGLLQALEGISPELGPTLDTLQLDVADFATTIWQQMEELGMAPALQPTQGAMPAFASAFQRRAGGVLVASHLQSFLEVSYRVLRHLAQP
# Experiments:
# Format in all cases: cell-based, human
# AML blasts [1] = assay: SCNP / phospho-flow modulated signaling assay, AML study No. 1 (PBMC at diagnosis, CR vs NR)
# From the text: The present illustrative example represents how to analyze cells in one embodiment of the present invention. There are several steps in the process, such as the stimulation step, the staining step and the flow cytometry step. The stimulation step of the phospho-flow procedure can start with vials of frozen cells and end with cells fixed and permeabilized in methanol. Then the cells can be stained with an antibody directed to a particular protein of interest and then analyzed using a flow cytometer.
# Frozen cells are thawed in a 37° C. water bath and gently resuspended in the vial and transferred to the 15 mL conical tube. The 15 mL tube is centrifuged at 930 RPM (200×g) for 8 minutes at room temperature. The supernatant is aspirated and the pellet is gently resuspended in 1 mL media A. The cell suspension is filtered through a 70 um cell strainer into a new 15 mL tube. The cell strainer is rinsed with 1 mL media A and another 12 ml of media A into the 15 mL tube. The cells are mixed into an even suspension. A 20 μL aliquot is immediately removed into a 96-well plate containing 180 μL PBS+4% FBS+CD45 Alexa 700+PI to determine cell count and viability post spin. After the determination, the 15 mL tubes are centrifuged at 930 RPM (200×g) for 8 minutes at room temperature. The supernatant is aspirated and the cell pellet is gently resuspended in 4 mL PBS+4 μL Amine Aqua and incubated for 15 min in a 37° C. incubator. 10 mL RPMI+1% FBS is added to the cell suspension and the tube is inverted to mix the cells. The 15 mL tubes are centrifuged at 930 RPM (200×g) for 8 minutes at room temperature. The cells are resuspended in Media A at the desired cell concentration (1.25×10^6/mL). For samples with low numbers of cells (<18.5×10^6), the cells are resuspended in up to 15 mL media. For samples with high numbers of cells (>18.5×10^6), the volume is raised to 10 mL with media A and the desired volume is transferred to a new 15 mL tube, and the cell concentration is adjusted to 1.25×10^6 cells/ml. 1.6 mL of the above cell suspension (concentration at 1.25×10^6 cells/ml) is transferred into wells of a multi-well plate. From this plate, 80 ul is dispensed into each well of a subsequent plate. The plates are covered with a lid (Nunc) and placed in a 37° C. incubator for 2 hours to rest.
# A concentration for each stimulant that is five folds more (5×) than the final concentration is prepared using Media A as diluent. 5× stimuli are arrayed into wells of a standard 96 well v-bottom plate that correspond to the wells on the plate with cells to be stimulated.
# Adding the stimulant: The cell plate(s) are taken out of the incubator and placed in a 37° C. water bath next to the pipette apparatus. The cell plate is taken from the water bath and gently swirled to resuspend any settled cells. With pipettor, the stimulant is dispensed into the cell plate and vortexed at “7” for 5 seconds. The deep well plate is put back into the water bath.
# Adding Fixative: 200 μl of the fixative solution (final concentration at 1.6%) is dispensed into wells and then mixed on the titer plate shaker on high for 5 seconds. The plate is covered with foil sealer and incubated in a 37° C. water bath for 10 minutes. The plate is spun for 6 minutes at 2000 rpm at room temperature. The cells are aspirated using a 96 well plate aspirator (VP Scientific). The plate is vortexed to resuspend cell pellets in the residual volume. The pellet is ensured to be dispersed before the Methanol step (see cell permeabilization) or clumping will occur.
# Cell Permeabilization: Permeability agent, for example methanol, is added slowly and while the plate is vortexing. To do this, the cell plate is placed on titer plate shaker and made sure it is secure. The plate is set to shake using the highest setting. A pipetter is used to add 0.6 mls of 100% methanol to the plate wells. The plate(s) are put on ice until this step has been completed for all plates.
# AML myeloblasts (BMMC) = assay: SCNP of paired diagnosis and relapse AML BMMC and independent diagnostic set (Example 5); details: paired diagnosis samples of Patients 1 and 2
# From the text: All AML bone marrow mononuclear cells (BMMC) were derived from the bone marrow (BM) of AML patients treated at MD Anderson Cancer Center (MDACC) between September 1999 and September 2006. Clinical data were de-identified in compliance with Health Insurance Portability and Accountability Act regulations. Patient/sample inclusion criteria required a diagnosis of French-American-British (FAB) classification of M0 through M7 AML (excluding M3) AML, collection prior to therapy initiation and at least 50% viability upon sample thaw. For the identification of chemoresistant signaling profiles, two longitudinally paired BMMC samples at diagnosis (collection prior to the initiation of induction chemotherapy) and first relapse, were examined. An independent test set comprised of 47 BMMC samples collected at diagnosis from AML patients with a disease response of CR after high dose cytarabine based chemotherapy was used to assess the ability of the identified signaling profiles to predict disease relapse. Healthy, unstimulated BMMC (n=2) were purchased from a commercial source (All Cells) to serve as a control. All samples underwent fractionation over Ficoll-Hypaque prior to cryopreservation with 90% fetal bovine serum and 10% dimethyl sulfoxide and storage in liquid nitrogen.
# The SCNP assay measured response to growth factors and cytokines involved in hematopoietic progenitor or myeloid biology (SCF, FLT3L, G-CSF, IL-27), drug transporter (ABCG2, MRP-1) and chemokine receptors (CXCR4) associated with adverse disease prognosis in AML, and the c-Kit growth factor receptor for SCF. The SCF and FLT3L-mediated PI3K/Akt and MAPK pathway is important for maintaining the hematopoietic stem cell pool; G-CSF-mediated Jak/STAT pathway activation is important for neutrophilic differentiation of hematopoietic progenitor cells; interleukin (IL)-27 mediated Jak/STAT pathway activation is important in regulating proliferation and differentiation of hematopoietic stem cells; CXCR4 expression is associated with disease relapse and decreased survival; and drug transporter expression levels (i.e. ABCG2 and MRP-1) are known to be associated with adverse prognosis in AML. All together, approximately 20 signaling nodes were evaluated in each sample.
# SCNP assays were performed as described previously. Cryopreserved samples were thawed at 37° C. and washed once in warm PBS containing 10% FBS (HyClone, Waltham, Mass., USA) and 2 mM EDTA. […] The cells were re-suspended in RPMI containing 1% FBS, aliquoted to 100,000 cells/condition and rested for 1-2 hours at 37° C. […]
# AML blasts [2] = assay: Functional apoptosis and DNA damage response assay, AML study No. 1 (c-PARP, cleaved caspases, p-Chk2)
# Experimental: Multi-parameter flow cytometric analysis was performed on peripheral blasts taken at diagnosis from 9 AML patients who achieved a complete response (CR) and 24 patients who were non-responders (NR) to one cycle of standard 7+3 induction therapy (100-200 mg/m2 cytarabine and 60 mg/m2 daunorubicin). The signaling nodes were organized into 4 biological categories: 1) Protein expression of receptors and drug transporters 2) Response to cytokines and growth factors, 3) Phosphatase activity, and 4) Apoptotic signaling pathways.
# A viable cell will be Aqua negative and PARP negative and a measure of cell death is PARP and/or Aqua positivity. “Apoptosis”=% of PARP^−Aqua^−unstim−% of PARP^−Aqua^−Drug.
# Functional assays were performed as previously described. Cells were incubated with modulators (Table 18), at 37° C. for 3-15 minutes, fixed with 1.6% paraformaldehyde (final concentration) for 10 minutes at 37° C., pelleted and permeabilized with 100% ice-cold methanol and stored at −80° C.
# The median fluorescence intensity (MFI) was computed for each node from the fluorescence intensity levels for the cells in the myeloid population. The MFI values were then used to compute a variety of metrics by comparing them to baseline or background values, including the unmodulated condition, cellular autofluorescence and antibody isotype controls. The following metrics were computed: • 1. Basal MFI (“Basal”)=log2(MFIUnmodulated Stained)−log2(MFIGated Unstained (Autofluoresence)), designed to measure the basal levels of a certain protein under unmodulated conditions. • 2. Fold Change MFI (“Fold”)=log2(MFIModulated Stained)−log2(MFIUnmodulated Stained), a measure of the change in the activation state of a protein under modulated conditions. • 3. Total Phospho MFI (“TotalPhospho”)=log2(MFIModulated Stained)−log2(MFIGated Unstained (Autofluorescence)), a measure of the total levels of a protein under modulated conditions. • 4. Relative Protein Expression (“Rel. Expression”)=log2(MFIstain)−log2(MFIControl), a measure of the levels of surface marker staining relative to control antibody staining. • 5. […] An additional metric was designed to measure the levels of cellular apoptosis in response to cytotoxic drugs: Quadrant (“Quad”)=a measure of the percentage of cells in a flow cytometry quadrant region defined by p-Chk2 and c-PARP i.e. the % of cells that are both p-Chk2- and c-PARP+.
# [3] = Study No. 1 sensitivity analysis, CR samples
# [4] = Study No. 1 sensitivity analysis, NR samples incl. CRp
molecule,measurement,setting,value
SCF: stem cell factor,"Mean Value of CRs, p-Akt Fold",AML blasts [1]; [3],0.09
same,"Mean Value of CRs, p-CREB Total Phospho",AML blasts [1]; [3],1.32
same,"Mean Value of CRs, p-Erk Fold",AML blasts [1]; [3],−0.06
same,"Mean Value of CRs, p-Plcγ2 Total Phospho",AML blasts [1]; [3],1.80
same,"Mean Value of NRs, p-Akt Fold",AML blasts [1]; [4],0.56
same,"Mean Value of NRs, p-CREB Total Phospho",AML blasts [1]; [4],1.92
same,"Mean Value of NRs, p-Erk Fold",AML blasts [1]; [4],0.11
same,"Mean Value of NRs, p-Plcγ2 Total Phospho",AML blasts [1]; [4],2.79
same,responsive cells in diagnostic AML bone marrow samples,AML myeloblasts (BMMC),~1%
CN[C@@H]1C[C@H]2O[C@@](C)([C@@H]1OC)n1c3ccccc3c3c4c(c5c6ccccc6n2c5c31)C(=O)NC4 [Staurosporine],cell death as determined by cleaved PARP and cleaved Caspase 8,AML blasts [2],failed to undergo cell death
same,cleaved PARP and caspase 8,AML blasts [2],significant populations of cells with cleaved PARP and caspase 8
same,in vitro apoptotic response in the context of FLT3 mutations,AML blasts [2],greatest apoptotic responses were those that expressed FLT3 ITD
same,phosphorylated Chk2,AML blasts [2],increase in phosphorylated Chk2
"COC(=O)CC(NC(=O)C(C)NC(=O)C(NC(=O)OCc1ccccc1)C(C)C)C(=O)CF (stereo not drawn) [Z-VAD, benzyloxycarbonyl-Val-Ala-Asp (OMe) fluoromethylketone] (Cbz-Val-Ala-Asp(OMe)-CH2F; configuration not given here)",cleavage of caspase 3 and PARP on co-incubation with Z-VAD,"AML blasts [2]; samples 0341, 0521",inhibited cleavage of caspase 3 and PARP to near completion
same,PARP cleavage on co-incubation with Z-VAD,"AML blasts [2]; samples 8303, 8402",only partially inhibited
B1,increase in p-Akt and p-S6 levels,AML blasts [1]; Staurosporine Resistant category vs other apoptosis categories,greatest increase in p-Akt and p-S6 levels
same,"Mean Value of CRs, p-Stat3 Fold",AML blasts [1]; [3],0.60
same,"Mean Value of CRs, p-Stat3 Total Phospho",AML blasts [1]; [3],1.40
same,"Mean Value of CRs, p-Stat5 Fold",AML blasts [1]; [3],0.33
same,"Mean Value of NRs, p-Stat3 Total Phospho",AML blasts [1]; [4],2.74
same,"Mean Value of NRs, p-Stat5 Fold",AML blasts [1]; [4],1.15
same,"Mean Value of NRs, p-Stat3 Fold","AML blasts [1]; Study No. 1 sensitivity analysis, NR samples incl. CRp, negative = down regulation",1.52
same,"Jak/Stat response (G-CSF: p-Stat3, p-Stat5; GM-CSF: p-Stat5)",AML blasts [1]; all samples of the Staurosporine Resistant apoptosis category,Robust Jak/Stat responses
same,responsive cells in diagnostic AML bone marrow samples,AML myeloblasts (BMMC),~1%
